Earlier results as cited in patent US20260355187A1, “LURBINECTEDIN AND DOXORUBICIN COMBINATION” (PHARMA MAR, S.A., priority 2022, published 2026).
Structures can show the parent of a compound that is named as a salt.

How the values were obtained:
[1] = tested on: other CYP isoenzymes; details: role: substrate; human microsomes, in vitro
[2] = tested on: NCI panel of 36 cell lines
[3] = tested on: tumour-associates macrophages; details: by inhibiting active transcription
[4] = tested on: tumour-derived cell lines; details: in vitro
[5] = tested on: CYP2E1; details: role: substrate; human microsomes, in vitro; after CYP3A4
[6] = tested on: CYP3A4; details: role: substrate; human microsomes, in vitro
[7] = tested on: CYP2D6; details: role: substrate
[8] = tested on: P-glycoprotein (P-gp); details: role: substrate
[9] = tested on: cytochrome P450 CYP3A4; details: role: substrate
[10] = tested on: CYP3A4, CYP2D6, and/or P-gp; details: role: substrate; inhibitors e.g. verapamil

## COc1ccc2[nH]c3c(c2c1)CCN[C@]31CS[C@@H]2c3c(OC(C)=O)c(C)c4c(c3[C@H](COC1=O)N1[C@@H]2[C@H]2c3c(cc(C)c(OC)c3O)C[C@@H]([C@@H]1O)N2C)OCO4 [lurbinectedin]
[1]
  Estimated contribution of the other CYP isoenzymes to metabolism: negligible
[2]; against other 98 standard anticancer agents
  COMPARE analysis: negative
[2]; versus trabectedin
  COMPARE correlation with trabectedin (S-rank): > 0.8
[3]
  Cytokine production in tumour-associated macrophages: downregulates IL-6, IL-8, CCL2, and VEGF
[4]; broad selection of tumour-derived cell lines
  half maximal inhibitory concentration (IC50), range in words: low to very low nanomolar range
[4]; median over tumour-derived cell lines
  IC50: ~0.1 nM
[5]
  Contribution of CYP2E1 to metabolism: followed by CYP2E1
[6]
  Contribution of CYP3A4 to metabolism: major CYP isoform involved in the metabolism

## COc1cccc2c1C(=O)c1c(O)c3c(c(O)c1C2=O)C[C@@](O)(C(=O)CO)C[C@@H]3O[C@H]1C[C@H](N)[C@H](O)[C@H](C)O1 [doxorubicin, 5,12-Naphthacenedione, 10-[(3-amino-2,3,6-trideoxy-α-L-lyxo-hexopyranosyl)oxy]-7,8,9,10tetrahydro-6,8,11-trihydroxy-8-(hydroxylacetyl)-1-methoxy-, hydrochloride (8S-cis)]
[7]
  Substrate of CYP2D6: major substrate
[8]
  Substrate of P-glycoprotein (P-gp): major substrate
[9]
  Substrate of CYP3A4: major substrate
[10]
  Clinical interaction with inhibitors of CYP3A4, CYP2D6, and/or P-gp: increased concentration and clinical effect of doxorubicin
